Data as given in US12304917B1, “Pleuromutilin derivative containing a thiazolo[5,4-c]pyridine side chain, and a preparation method and application thereof” (SHAANXI UNIVERSITY OF SCIENCE AND TECHNOLOGY, priority 2024, dated 2025).
≈ marks a conversion by molar mass, not a printed value.

What was measured:
physchem = conditions: thermodynamic from solid
[1] = system: Methicillin-resistant S. aureus ATCC 33591; assay: MIC by broth microdilution; conditions: Staphylococcus aureus, ATCC33591|MRSA, 24 h, read-out: Minimum inhibitory concentration MRSA^b
[2] = system: Methicillin-resistant S. aureus ATCC 43300; assay: MIC by broth microdilution; conditions: Staphylococcus aureus, ATCC43300|MRSA, 24 h, read-out: Minimum inhibitory concentration MRSA^c
S. aureus ATCC 29213 = assay: MIC by broth microdilution; conditions: Staphylococcus aureus, ATCC29213, 24 h, read-out: Minimum inhibitory concentration S.a.^d
[3] = system: Methicillin-resistant S. epidermidis ATCC 51625; assay: MIC by broth microdilution; conditions: Staphylococcus epidermidis, ATCC51625|MRSE, 24 h, read-out: Minimum inhibitory concentration MRSE^e
A. baumannii ATCC 19606 = assay: MIC by broth microdilution; conditions: Acinetobacter baumannii, ATCC19606, 24 h, read-out: Minimum inhibitory concentration A.b.^f
S. enterica ATCC14028 = assay: MIC by broth microdilution; conditions: Salmonella enterica, ATCC14028, 24 h, read-out: Minimum inhibitory concentration S.e.^g
E. coli ATCC 25922 = assay: MIC by broth microdilution; conditions: Escherichia coli, ATCC25922, 24 h, read-out: Minimum inhibitory concentration E.c.^h
E. coli CMCC 44103 = assay: MIC by broth microdilution; conditions: Escherichia coli, CMCC44103, 24 h, read-out: Minimum inhibitory concentration E.c.^i
HepG2 cells = conditions: human, 24 h
HEK293 cells = conditions: human, 24 h
A549 cells = conditions: human, 24 h

SMILES | solubility (physchem) [µM] | MIC [1] [µg/mL] | MIC [2] [µg/mL] | MIC (S. aureus ATCC 29213) [µg/mL] | MIC [3] [µg/mL] | MIC (A. baumannii ATCC 19606) [µg/mL] | MIC (S. enterica ATCC14028) [µg/mL] | MIC (E. coli ATCC 25922) [µg/mL] | MIC (E. coli CMCC 44103) [µg/mL] | CC50 (HepG2 cells) [µM] | CC50 (HEK293 cells) [µM] | CC50 (A549 cells) [µM]
C=C[C@]1(C)C[C@@H](OC(=O)CSc2nc3cc[n+](Cc4ccc(C(F)(F)F)cc4)cc3s2)[C@]2(C)[C@H](C)CC[C@]3(CCC(=O)[C@H]32)[C@@H](C)[C@@H]1O [Compound I-2, 5-(4-trifluoromethyl)-2-((2-(((3aR,4R,5R,7S,8S,9R,9aS,12R)-8-hydroxy-4,7,9,12-tetramethyl-3-oxo-7-vinyldecahydro-4,9a-propancyclopenta[8]cyclo-5-yl)oxy)-2-oxoethyl)thio)thiazolo[5,4-c]pyridin-5-ium] | 327 | 32 | 16 | 8 | 16 | 32 | 8 | 8 | 16 | – | – | –
C=C[C@]1(C)C[C@@H](OC(=O)CSc2nc3cc[n+](Cc4ccc(-c5ccccc5)cc4)cc3s2)[C@]2(C)[C@H](C)CC[C@]3(CCC(=O)[C@H]32)[C@@H](C)[C@@H]1O [Compound I-10, 5-([1,1′-biphenyl]-4-ylmethyl)-2-((2-(((3aR,4R,5R,7S,8S,9R,9aS,12R)-8-hydroxy-4,7,9,12-tetramethyl-3-oxo-7-vinyldecahydro-4,9a-propancyclopenta[8]cyclo-5-yl)oxy)-2-oxoethyl)thio)thiazolo[5,4-c]pyridin-5-ium] | 513 | 16 | 64 | 8 | 32 | 8 | 16 | 16 | 32 | – | – | –
C=C[C@]1(C)C[C@@H](OC(=O)CSCCN(CC)CC)[C@]2(C)[C@H](C)CC[C@]3(CCC(=O)[C@H]32)[C@@H](C)[C@@H]1O [Tiamulin, tiamulin, reference compound] | 259 (≈ 128 µg/mL) | – | – | – | – | – | – | – | – | – | – | –
C=C[C@]1(C)C[C@@H](OC(=O)CSc2nc3cc[n+](Cc4cc(F)ccc4C#N)cc3s2)[C@]2(C)[C@H](C)CC[C@]3(CCC(=O)[C@H]32)[C@@H](C)[C@@H]1O [Compound I-13, 5-(2-cyano-5-fluorobenzyl)-2-((2-(((3aR,4R,5R,7S,8S,9R,9aS,12R)-8-hydroxy-4,7,9,12-tetramethyl-3-oxo-7-vinyldecahydro-4,9a-propancyclopenta[8]cyclo-5-yl)oxy)-2-oxoethyl)thio)thiazolo[5,4-c]pyridin-5-ium] | 231 | 32 | 64 | 64 | 32 | 64 | 64 | 64 | 32 | – | – | –
C=C[C@]1(C)C[C@@H](OC(=O)CSc2nc3cc[n+](Cc4cc(OC)cc(OC)c4)cc3s2)[C@]2(C)[C@H](C)CC[C@]3(CCC(=O)[C@H]32)[C@@H](C)[C@@H]1O [Compound I-14, 5-(3,5-dimethoxybenzyl)-2-((2-(((3aR,4R,5R,7S,8S,9R,9aS,12R)-8-hydroxy-4,7,9,12-tetramethyl-3-oxo-7-vinyldecahydro-4,9a-propancyclopenta[8]cyclo-5-yl)oxy)-2-oxoethyl)thio)thiazolo[5,4-c]pyridin-5-ium] | 126 | 32 | 32 | 64 | 64 | 32 | 64 | 32 | 64 | – | – | –
C=C[C@]1(C)C[C@@H](OC(=O)CS[C@@H]2C[C@H]3CC[C@@H](C2)N3C)[C@]2(C)[C@H](C)CC[C@]3(CCC(=O)[C@H]32)[C@@H](C)[C@@H]1O [Retapamulin, retapamulin, reference compound] | – | – | – | 4 (≈ 7.73 µM) | – | 4 (≈ 7.73 µM) | 128 (≈ 247 µM) | 32 (≈ 61.8 µM) | 32 (≈ 61.8 µM) | 61.1 | 57.5 | 71.5
C=C[C@]1(C)C[C@@H](OC(=O)CSc2nc3cc[n+](Cc4cc(F)c(F)cc4F)cc3s2)[C@]2(C)[C@H](C)CC[C@]3(CCC(=O)[C@H]32)[C@@H](C)[C@@H]1O [Compound I-7, 5-(2,4,5-trifluorobenzyl)-2-((2-(((3aR,4R,5R,7S,8S,9R,9aS,12R)-8-hydroxy-4,7,9,12-tetramethyl-3-oxo-7-vinyldecahydro-4,9a-propancyclopenta[8]cyclo-5-yl)oxy)-2-oxoethyl)thio)thiazolo[5,4-c]pyridin-5-ium] | 656 | 128 | 64 | 64 | 64 | 128 | 64 | 128 | 64 | – | – | –
C=C[C@]1(C)C[C@@H](OC(=O)CSc2nc3cc[n+](Cc4cc(C)cc(C)c4)cc3s2)[C@]2(C)[C@H](C)CC[C@]3(CCC(=O)[C@H]32)[C@@H](C)[C@@H]1O [Compound I-12, 5-(3,5-dimethylbenzyl)-2-((2-(((3aR,4R,5R,7S,8S,9R,9aS,12R)-8-hydroxy-4,7,9,12-tetramethyl-3-oxo-7-vinyldecahydro-4,9a-propancyclopenta[8]cyclo-5-yl)oxy)-2-oxoethyl)thio)thiazolo[5,4-c]pyridin-5-ium] | 549 | 64 | 64 | 16 | 32 | 32 | 64 | 64 | 32 | – | – | –
C=C[C@]1(C)C[C@@H](OC(=O)CSc2nc3cc[n+](Cc4ccc(C(C)(C)C)cc4)cc3s2)[C@]2(C)[C@H](C)CC[C@]3(CCC(=O)[C@H]32)[C@@H](C)[C@@H]1O [Compound I-11, 5-(4-(tert-butyl)benzyl)-2-((2-(((3aR,4R,5R,7S,8S,9R,9aS,12R)-8-hydroxy-4,7,9,12-tetramethyl-3-oxo-7-vinyldecahydro-4,9a-propancyclopenta[8]cyclo-5-yl)oxy)-2-oxoethyl)thio)thiazolo[5,4-c]pyridin-5-ium] | – | 64 | 16 | 32 | 32 | 8 | 32 | 32 | 16 | – | – | –

Second part, led by results:

solubility (physchem) [µM] | MIC [1] [µg/mL] | MIC [2] [µg/mL] | MIC (S. aureus ATCC 29213) [µg/mL] | MIC [3] [µg/mL] | MIC (A. baumannii ATCC 19606) [µg/mL] | MIC (S. enterica ATCC14028) [µg/mL] | MIC (E. coli ATCC 25922) [µg/mL] | MIC (E. coli CMCC 44103) [µg/mL] | SMILES | CC50 (HepG2 cells) [µM] | CC50 (HEK293 cells) [µM] | CC50 (A549 cells) [µM]
247 | 32 | 8 | 16 | 64 | 32 | 32 | 16 | 8 | C=C[C@]1(C)C[C@@H](OC(=O)CSc2nc3cc[n+](Cc4ccc(OC)cc4)cc3s2)[C@]2(C)[C@H](C)CC[C@]3(CCC(=O)[C@H]32)[C@@H](C)[C@@H]1O [Compound I-4, 5-(4-methoxybenzyl)-2-((2-(((3aR,4R,5R,7S,8S,9R,9aS,12R)-8-hydroxy-4,7,9,12-tetramethyl-3-oxo-7-vinyldecahydro-4,9a-propancyclopenta[8]cyclo-5-yl)oxy)-2-oxoethyl)thio)thiazolo[5,4-c]pyridin-5-ium] | – | – | –
623 | 32 | 32 | 8 | 32 | 32 | 16 | 32 | 32 | C=C[C@]1(C)C[C@@H](OC(=O)CSc2nc3cc[n+](Cc4ccc(Cl)cc4)cc3s2)[C@]2(C)[C@H](C)CC[C@]3(CCC(=O)[C@H]32)[C@@H](C)[C@@H]1O [Compound I-5, 5-(4-chlorobenzyl)-2-((2-(((3aR,4R,5R,7S,8S,9R,9aS,12R)-8-hydroxy-4,7,9,12-tetramethyl-3-oxo-7-vinyldecahydro-4,9a-propancyclopenta[8]cyclo-5-yl)oxy)-2-oxoethyl)thio)thiazolo[5,4-c]pyridin-5-ium] | – | – | –
561 | 32 | 16 | 16 | 8 | 32 | 32 | 8 | 16 | C=C[C@]1(C)C[C@@H](OC(=O)CSc2nc3cc[n+](Cc4ccc(F)cc4)cc3s2)[C@]2(C)[C@H](C)CC[C@]3(CCC(=O)[C@H]32)[C@@H](C)[C@@H]1O [Compound I-3, 5-(4-fluorobenzyl)-2-((2-(((3aR,4R,5R,7S,8S,9R,9aS,12R)-8-hydroxy-4,7,9,12-tetramethyl-3-oxo-7-vinyldecahydro-4,9a-propancyclopenta[8]cyclo-5-yl)oxy)-2-oxoethyl)thio)thiazolo[5,4-c]pyridin-5-ium] | – | – | –
450 | 32 | 16 | 16 | 8 | 16 | 32 | 32 | 32 | C=C[C@]1(C)C[C@@H](OC(=O)CSc2nc3cc[n+](Cc4ccc(Br)cc4)cc3s2)[C@]2(C)[C@H](C)CC[C@]3(CCC(=O)[C@H]32)[C@@H](C)[C@@H]1O [Compound I-1, 5-(4-bromobenzyl)-2-((2-(((3aR,4R,5R,7S,8S,9R,9aS,12R)-8-hydroxy-4,7,9,12-tetramethyl-3-oxo-7-vinyldecahydro-4,9a-propancyclopenta[8]cyclo-5-yl)oxy)-2-oxoethyl)thio)thiazolo[5,4-c]pyridin-5-ium] | – | – | –
